Series [1] is described as follows: AUC (0 to infinity) in Wistar rat assessed as (R)-(6-chloro-4-(5-cyclopropyl-1H-pyrazol-3-ylamino)quinazolin-2-yl)(3-methylpiperazin-1-yl)methanone hydrochloride at 2.5 mg/kg, iv measured upto 24 hrs by LC/MS/MS analysis. The note with it: in vivo. On the set-up: route intravenous, dose 2.5 mg/kg, time <=24. It is filed as ADME, organism-based.
Series [2] is described as follows: Toxicity in […] nude mouse harboring human HCT-116 cells assessed as body weight loss at 25 to 50 mg/kg, po qd measured after 21 days relative to control. It is filed as organism-based. Particulars: in vivo, 504 h, dose 25-50 mg/kg, time 21 day.
Series [3] is described as follows: Chemical stability of the compound in pH 6.8 simulated intestinal fluid assessed as compound remaining measured after 2 hrs by HPLC analysis. It is filed as physicochemical.
A short description of series [4]: Chemical stability of the compound in pH 1.2 simulated gastric fluid buffer assessed as compound remaining measured after 2 hrs by HPLC analysis. It is filed as physicochemical.
A short description of series [5]: Initial plasma concentration in Wistar rat assessed as (R)-(6-chloro-4-(5-cyclopropyl-1H-pyrazol-3-ylamino)quinazolin-2-yl)(3-methylpiperazin-1-yl)methanone hydrochloride at 2.5 mg/kg, iv measured upto 24 hrs by LC/MS/MS analysis. The note with it: in vivo. The format is ADME, organism-based.
A short description of series [6]: Chemical stability of the compound in pH 7.4 PBS buffer assessed as compound remaining measured after 2 hrs by HPLC analysis. The format is physicochemical. Particulars: read-out: Stabilty.
Series [7] is described as follows: Stability of the compound in human plasma assessed as compound remaining measured within 120 mins at 37 degC by HPLC analysis. It is filed as ADME, cell-free. Particulars: read-out: Stabilty.
A short description of series [8]: Tmax in Wistar rat assessed as (R)-(6-chloro-4-(5-cyclopropyl-1H-pyrazol-3-ylamino)quinazolin-2-yl)(3-methylpiperazin-1-yl)methanone hydrochloride at 13.5 mg/kg, po measured upto 24 hrs by LC/MS/MS analysis. The format is ADME, organism-based. The note with it: in vivo.
A short description of series [9]: Toxicity in […] nude mouse harboring mouse B16F10 cells assessed as body weight loss at 25 to 50 mg/kg, po qd measured after 21 days relative to control. The format is organism-based. The note with it: in vivo, 504 h, dose 25-50 mg/kg, time 21 day.
A short description of series [10]: Half life in Wistar rat assessed as (R)-(6-chloro-4-(5-cyclopropyl-1H-pyrazol-3-ylamino)quinazolin-2-yl)(3-methylpiperazin-1-yl)methanone hydrochloride at 13.5 mg/kg, po measured upto 24 hrs by LC/MS/MS analysis. It is filed as ADME, organism-based. Particulars: in vivo.
Series [11] is described as follows: Half life in Wistar rat assessed as (R)-(6-chloro-4-(5-cyclopropyl-1H-pyrazol-3-ylamino)quinazolin-2-yl)(3-methylpiperazin-1-yl)methanone hydrochloride at 2.5 mg/kg, iv measured upto 24 hrs by LC/MS/MS analysis. It is filed as ADME, organism-based. Particulars: in vivo.
Series [12] can be described thus: AUC in Wistar rat assessed as (R)-(6-chloro-4-(5-cyclopropyl-1H-pyrazol-3-ylamino)quinazolin-2-yl)(3-methylpiperazin-1-yl)methanone hydrochloride at 13.5 mg/kg, po measured upto 24 hrs by LC/MS/MS analysis. Particulars: in vivo. Further details: route oral, dose 13.5 mg/kg, time <=24. The format is ADME, organism-based.
Series [13] in a line: Volume of distribution in Wistar rat assessed as (R)-(6-chloro-4-(5-cyclopropyl-1H-pyrazol-3-ylamino)quinazolin-2-yl)(3-methylpiperazin-1-yl)methanone hydrochloride at 2.5 mg/kg, iv measured upto 24 hrs by LC/MS/MS analysis. It is filed as ADME, organism-based. Particulars: in vivo.
Series [14] can be described thus: Stability of the compound in rat liver S9 fraction assessed as compound remaining measured after 60 mins at 37 degC by LC-MS/MS analysis. The format is ADME, subcellular. The note with it: read-out: Stabilty.
Series [15] has as its system B16-F10. In words: Antitumor activity against mouse B16F10 cells xenografted in BABL/c nude mouse assessed as reduction in tumor volume at 25 mg/kg, po qd measured after 21 days. The format is functional. The note with it: 504 h, time 21 day.
Series [16] is described as follows: Oral bioavailability in Wistar rat assessed as (R)-(6-chloro-4-(5-cyclopropyl-1H-pyrazol-3-ylamino)quinazolin-2-yl)(3-methylpiperazin-1-yl)methanone hydrochloride at 13.5 mg/kg measured upto 24 hrs by LC/MS/MS analysis. The format is ADME, organism-based. Particulars: in vivo.
Series [17] has as its system B16-F10. Briefly: Antitumor activity against mouse B16F10 cells xenografted in BABL/c nude mouse assessed as reduction in tumor volume at 50 mg/kg, po qd measured after 21 days. The format is functional. Particulars: 504 h, time 21 day.
Series [18] in a line: Prodrug conversion in human plasma assessed as release of active metabolite (R)-(6-chloro-4-(5-cyclopropyl-1H-pyrazol-3-ylamino)quinazolin-2-yl)(3-methylpiperazin-1-yl)methanone hydrochloride measured within 120 mins at 37 degC by HPLC analysis. The format is ADME, cell-free. Particulars: 2 h.
Series [19] in a line: AUC in Wistar rat assessed as (R)-(6-chloro-4-(5-cyclopropyl-1H-pyrazol-3-ylamino)quinazolin-2-yl)(3-methylpiperazin-1-yl)methanone hydrochloride at 2.5 mg/kg, iv measured upto 24 hrs by LC/MS/MS analysis. Particulars: in vivo. It is filed as ADME, organism-based. Further details: route intravenous, dose 2.5 mg/kg, time <=24.
For series [20], the system named is HCT-116. In words: Antitumor activity against human HCT-116 cells xenografted in BABL/c nude mouse assessed as reduction in tumor weight at 50 mg/kg, po qd measured after 21 days. The format is functional. The note with it: HCT-116, po, 504 h, time 21 day.
A short description of series [21]: Cmax in Wistar rat assessed as (R)-(6-chloro-4-(5-cyclopropyl-1H-pyrazol-3-ylamino)quinazolin-2-yl)(3-methylpiperazin-1-yl)methanone hydrochloride at 13.5 mg/kg, po measured upto 24 hrs by LC/MS/MS analysis. The format is ADME, organism-based. Further details: route oral, dose 13.5 mg/kg, time <=24. Particulars: in vivo.
A short description of series [22]: AUC (0 to infinity) in Wistar rat assessed as (R)-(6-chloro-4-(5-cyclopropyl-1H-pyrazol-3-ylamino)quinazolin-2-yl)(3-methylpiperazin-1-yl)methanone hydrochloride at 13.5 mg/kg, po measured upto 24 hrs by LC/MS/MS analysis. Particulars: in vivo. On the set-up: route oral, dose 13.5 mg/kg, time <=24. The format is ADME, organism-based.
The subject of series [23] is HCT-116. In words: Antitumor activity against human HCT-116 cells xenografted in BABL/c nude mouse assessed as reduction in tumor weight at 25 mg/kg, po qd measured after 21 days. It is filed as functional. The note with it: HCT-116, po, 504 h, time 21 day.

These results are taken from ChEMBL document CHEMBL4765244, “Synthesis, bioconversion, pharmacokinetic and pharmacodynamic evaluation of N-isopropyl-oxy-carbonyloxymethyl prodrugs of CZh-226, a potent and selective PAK4 inhibitor” (Eur J Med Chem, 2020).

With `CC(C)C(=O)OCOC(=O)N1CCN(C(=O)c2nc(Nc3cc(C4CC4)[nH]n3)c3cc(Cl)ccc3n2)C[C@H]1C`, the AUC in series [1] came to 1173.5 ng·h/mL; in series [12], 129.7 ng·h/mL; in series [19], 1124.8 ng·h/mL; in series [22], 470.8 ng·h/mL. Also, the Activity entry in [2] and in series [9] was “Non-Toxic” throughout. Moreover, the Stability in series [3] is 46%; in [4], 90%. In addition, the C0 in series [5] stood at 4130 ng/mL. In addition, the values for the remaining at 2 h in [6] and in series [7] were 93.5% and 6.1%, respectively. In addition, the Tmax in series [8] was found to be 4.98 min. For the same compound, the t1/2 stood at 20.1 h in series [10] and 7.1 h in series [11]. Besides, the Vd in series [13] came to 21.6 L/kg. In series [14], the remaining at 1 h amounted to 14%. In addition, the values for the inhibition in vivo at 25 mg/kg with B16-F10 [15] and in the series on HCT-116 [23] were 51% and 54%, respectively. In addition, in series [16], the F is 7.55%. Besides, the inhibition in vivo at 50 mg/kg worked out at 63% in the series with B16-F10 [17] and 65% in the series with HCT-116 [20]. For the same compound, in series [18], the Drug metabolism amounted to 89.9%. Further, in series [21], the highest concentration (Cmax) worked out at 31.5 ng/mL.
